Reference: patent US20110136897A1, “TOLL-LIKE RECEPTOR 9 AGONISTS FOR THE TREATMENT OF ANXIETY-RELATED DISORDERS AND INFLAMMATORY DISORDERS” (YISSUM RESEARCH DEVELOPMENT COMPANY OF THE HEBREW …, priority 2008, published 2011)
In the oligonucleotide strings, read from the 5' end, every base follows the letter of its sugar. An asterisk marks phosphorothioate; unmarked linkages are phosphodiester. Other units and linkages are bracketed, terminal groups are in braces. A string of capitals states the bases alone. d = 2'-deoxy (DNA)

Experiments:
[1] = target: T1, glucocorticoid receptor (GR) (Mus musculus, UniProt P06537); experiment: Glucocorticoid receptor whole cell [3H]dexamethasone binding assay, RAW264.7; format: cell-based; parameters: host or cells: RAW264.7 (mouse macrophage cell line)
T1 sequence (P06537 1-792): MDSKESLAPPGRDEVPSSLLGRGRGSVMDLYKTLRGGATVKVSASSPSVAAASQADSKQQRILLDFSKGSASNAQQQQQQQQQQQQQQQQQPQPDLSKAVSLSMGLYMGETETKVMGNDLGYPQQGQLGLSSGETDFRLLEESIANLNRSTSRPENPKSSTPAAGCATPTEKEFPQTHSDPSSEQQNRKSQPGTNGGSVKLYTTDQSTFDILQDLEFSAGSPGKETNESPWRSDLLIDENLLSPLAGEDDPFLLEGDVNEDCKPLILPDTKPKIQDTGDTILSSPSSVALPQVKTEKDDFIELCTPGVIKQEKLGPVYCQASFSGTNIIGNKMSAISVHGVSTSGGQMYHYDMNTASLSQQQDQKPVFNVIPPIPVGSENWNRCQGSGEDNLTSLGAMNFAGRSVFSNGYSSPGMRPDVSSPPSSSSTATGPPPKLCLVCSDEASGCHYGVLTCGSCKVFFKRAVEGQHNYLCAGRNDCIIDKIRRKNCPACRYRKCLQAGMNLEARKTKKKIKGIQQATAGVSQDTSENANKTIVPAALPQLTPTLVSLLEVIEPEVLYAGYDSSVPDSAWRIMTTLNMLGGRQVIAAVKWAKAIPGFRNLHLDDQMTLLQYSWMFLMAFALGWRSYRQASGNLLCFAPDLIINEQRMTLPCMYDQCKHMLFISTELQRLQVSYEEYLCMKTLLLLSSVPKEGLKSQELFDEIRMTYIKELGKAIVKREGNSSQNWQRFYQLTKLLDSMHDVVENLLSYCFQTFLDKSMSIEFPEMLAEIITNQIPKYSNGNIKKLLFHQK
Protocol: Glucocorticoid receptor assay: A whole cell binding assay was used to determine GR number and affinity. 0.7×10^6 RAW264.7 cells in 2 ml medium were grown in 24-wells plates until 80% confluence was obtained. After the appropriate treatment, the medium was replaced with a saturating concentration of 50 nM [^3H]dexamethasone (85.0 Ci/mmol) (Amersham Biosciences, NJ, USA) in 5 μM unlabeled dexamethasone (Sigma, Israel). After incubation for 2 hours at 37° C., cells were washed 6 times with cold PBS and lysed in 1M NaOH. Lysates were harvested and counted in a beta-spectrometer.
Since HSP90 modulates GR activity by increasing its affinity to glucocorticoids (GCs) it was wondered whether such an effect could be obtained by activating TLR9. In order to challenge that hypothesis, RAW264.7 cells were incubated with varying concentrations of hEN101 for 24 hours and the medium was subsequently replaced with one containing different concentration of 50 nM [^3H]dexamethasone and 5 μM unlabeled dexamethasone. After a 2 hour incubation, radioactivity was measured in a beta-spectrometer.

[2] = system: RAW264.7 cells; experiment: HSP90 and GR immunostaining and colocalization, confocal microscopy; format: cell-based, mouse; settings: 24 h, 1-10 μM
Protocol: Immunohistochemistry: Cells were fixed with 4% PFA in phosphate-buffered saline (PBS) for 15 minutes at room temperature (RT), washed and transferred to 100% MetOH at −20° C. for 5 minutes. Afterwards, cells were washed twice with a blocking medium containing PBS, 1% bovine serum albumin (BSA) and 0.01% NaN3 and then were incubated for 1 hour at RT with anti-HSP90 and anti-GR antibodies (1:50) (Santa Cruz Biotechnology, CA). After incubation, cells were washed twice in blocking medium and incubated with 1:100 secondary antibodies (Jackson Immunoresearch Laboratories, PA). Slides were mounted onto glass slides and visualized by confocal microscopy.

[3] = system: RAW264.7 cells; experiment: Nitric oxide (NO) production, Griess reaction; format: cell-based, mouse; settings: with 1 μM mEN101
[4] = system: RAW264.7 cells; experiment: Nitric oxide (NO) production, Griess reaction; format: cell-based, mouse; settings: for effect on 10 μM mEN101-driven increases in NO: added with 10 μM mEN101
Protocol: The mouse macrophage cell line RAW 264.7 (ATCC, Bethesda, Md.) was cultured in Dulbecco's modified Eagle's medium (DMEM) (Biological Industries) supplemented with 10% heat-inactivated fetal bovine serum (Biological Industries, Israel), 100 μg/ml streptomycin, 100 U/ml penicillin (Sigma) and 2 mM 1-glutamine (Biological Industries) at 37° C. in a humidified atmosphere with 5% CO2.
Determination of nitric oxide (NO) production: Nitrite concentration in the medium of cultured cells was measured as an indicator of NO production according to the Griess reaction. 1×10^5 mouse RAW264.7 cells were grown in 0.5 ml medium in 48-wells plate until 80% confluence was obtained. […] (1% sulfanilamide, 0.1% naphthylethylenediamine dihydrochloride, 5% H3PO4). Absorbance was read at 540 nm after 10 min using SPECTRAFluor Plus spectrophotometer (TECAN, UK).
To further characterize the TLR9 activating features of mEN101, mEN101 was applied to RAW264.7 cells (n=4 repeats) for 24 hours and the subsequent production of inflammatory markers was quantified. […] Addition of chloroquine (CQ), a weak base that perturbs endosomal pH and thus disturbs endosomal maturation, as well as the specific TLR9 inhibiting oligonucleotides ODN2088 and ODN TTAGGG (17), all blocked the 10 μM mEN101-driven increases in NO (p<0.015) (FIG. 2A). Thus, both gain and loss of function tests validated the nature of mEN101 as an endosomally active TLR9 activator, albeit a weak one.

[5] = system: splenocytes; experiment: IFN-γ induction in splenocytes (ELISA); format: cell-based, mouse; settings: mEN101 even at 10 μM doses
Protocol: Cell cultures: Spleens were removed from 5-6 week old FVB/N mice (Harlan Laboratories, Israel) and mashed until a homogeneous cell suspension was obtained. The suspension was centrifuged in a LSM Lymphocyte Separation Medium (MP Biomedicals, Solon, Ohio) and the mononuclear cell layer was separated. Cells were adjusted to a 5×10^6 cells/ml and cultured in RPMI 1640 (Biological Industries, Israel) supplemented with 5% FCS, […] L-glut, 100 μg/ml streptomycin, 100 U/ml penicillin and 5×10^−5 2-mercaptoethanol (Sigma, Israel).
ELISA: Serum was extracted by centrifuging blood in heparin-containing Microtainer LH vials (BD, Franklin Lakes, N.J.) for 10 minutes at 3000 g. Serum and cell-culture supernatants were analyzed for IL-1β, IL-6, TNF-α and IFN-γ using respective ELISA Ready-SET-Go (eBioscience, San Diego, Calif.) kits as instructed. Intensities were read using a Tecan SPECTRAFluor Plus spectrophotometer (Mannedorf, Switzerland).

[6] = system: RAW264.7 cells; experiment: LPS-induced NO production with or without corticosterone after ODN1826 pre-incubation; format: cell-based, mouse; settings: 10 or 50 mM corticosterone, LPS 1 μg/ml, 24 hours
Protocol: Determination of nitric oxygen (NO) production: The nitrite concentration in the medium was measured as an indicator of NO production according to the Griess reaction. 1×10^5 RAW264.7 cells were grown in 0.5 ml medium in 48-wells plate until 80% confluence was obtained. […] (1% sulfanilamide, 0.1% naphthylethylenediamine dihydrochloride, 5% H3PO4). Absorbance was read at 540 nm after 10 minutes using SPECTRAFluor Plus spectrophotometer (TECAN, UK).
In order to study the functional effects of TLR9 activation on GR signaling, RAW264.7 cells were incubated with varying concentrations of ODN1826 (SEQ ID NO: 2) for 24 hours and the medium was replaced with one containing LPS (1 μg/ml) with or without […] corticosterone (CORT) for an additional 24 hours. As expected, CORT blocked lipopolysaccharide (LPS)-induced NO production.

[7] = system: RAW264.7 cells; experiment: RT-PCR of inflammatory genes in RAW264.7 cells (Table 2); format: cell-based, mouse; settings: 1 ug/ml
Protocol: Real-time PCR (RT-PCR): Brains were dissected and tissues stored frozen at −70° C. until use. Hippocampal RNA was extracted using the RNeasy Tissue Mini Kit (Qiagen, Germany). Total RNA was reverse-transcribed (200 ng) using Impromp-II reverse transcriptase (Promega, Madison, Wis.) as instructed. RT-PCR was performed using Power SYBR®Green PCR Master Mix (Applied Biosystems, UK) in a 7900 HT Sequence Detection System (Applied Biosystems, Foster City, Calif.). Quantification was assessed at the logarithmic phase of the PCR reaction. The PCR annealing temperature was 60° C. for all primer pairs. GAPDH was used as a house-keeping gene.
Shown are fold differences in RT-PCR products of RAW264.7 cells incubated with the noted doses of mEN101 or ODN1826. Note that ODN1826 affects IL1α, -1β, -6, -10, -12 and ICAM-1 gene expression at concentrations as low as 10 nM, whereas considerably higher doses of mEN101 are needed to attain similar effects. Nevertheless, mEN101 affects inflammatory gene expression even at 10 nM. 1 μg/ml LPS was used as positive control. (n=3, p<0.05 Mann-Whitney U-test compared to untreated controls, for all the data shown).

## 5′-CTGCCACGTTCTCCTGCA*C*C*-3′ [hEN101]
[1]; 10 μM per FIG. 10D legend
  DEX (GR) Bmax, Scatchard plot analysis: increased
[1]; 24 hours pre-incubation
  concentration from which effects on [3H]dexamethasone incorporation are detectable: ≥ 1 µM
[1]; 24 hours pre-incubation, dose-dependent
  whole cell [3H]dexamethasone incorporation / binding: increased [^3H]dexamethasone incorporation
[2]
  GR level: not GR
  colocalization of HSP90 and GR signals: increased colocalization of HSP90 and GR signals
[2]; dose dependent
  HSP90 level: upregulated HSP90

## 5′-TTTAGGGTTAGGGTTAGGGTTAGGG-3′ (dT*dT*dT*dA*dG*dG*dG*dT*dT*dA*dG*dG*dG*dT*dT*dA*dG*dG*dG*dT*dT*dA*dG*dG*dG) [ODN TTAGGG]
[3]
  effect on mEN101 effects on NO production (FIG. 2A legend): abolished
[4]
  effect on 10 μM mEN101-driven increases in NO: blocked

## 5′-ggGGTCAACGTTGAgggggg (GGGGTCAACGTTGAGGGGGG; listed as DNA, chemistry not given here) [ODN1585, type-A CpG ODN, Invivogen]
[5]
  induction of IFN-γ: stronger for ODN1585 than ODN1826
[4]; 24 hours
  NO production at doses parallel to ODN1826 (10-100 nM): totally ineffective
  dose needed to initiate detectable NO overproduction: 10 µM

## C[C@]12C[C@H](O)[C@H]3[C@@H](CCC4=CC(=O)CC[C@@]43C)[C@@H]1CC[C@@H]2C(=O)CO [CORT, corticosterone]
[6]
  LPS-induced NO production: blocked

## CCN(CC)CCCC(C)Nc1ccnc2cc(Cl)ccc12 (centres unmarked) [chloroquine]
[3]
  effect on mEN101 effects on NO production (FIG. 2A legend): abolished
[4]
  effect on 10 μM mEN101-driven increases in NO: blocked

## lipopolysaccharide [LPS, reference compound]
[7]
  ICAM-1 RT-PCR product: −3.74 log2 from NT
  IL1a RT-PCR product: 8.86 log2 from NT
  IL1b RT-PCR product: 5.42 log2 from NT
  IL6 RT-PCR product: 3.81 log2 from NT
  IL10 RT-PCR product: 3.20 log2 from NT
  IL12 RT-PCR product: 8.75 log2 from NT
